Source: ChEMBL document CHEMBL1641410, “In silico discovery of acylated flavonol monorhamnosides from Eriobotrya japonica as natural, small-molecular weight inhibitors of XIAP BIR3” (Bioorg Med Chem, 2011)

What was measured:
[1] = biological target: E3 ubiquitin-protein ligase XIAP (Homo sapiens, UniProt P98170); experiment: Displacement of fluorescent SM5F peptide from XIAP linker BIR3 domain after 3 hrs by fluorescence polarization assay
[2] = Chemical stability of the compound after 15 hrs; format: physicochemical

Sequence of E3 ubiquitin-protein ligase XIAP (P98170 whole entry, the tested form may be a part): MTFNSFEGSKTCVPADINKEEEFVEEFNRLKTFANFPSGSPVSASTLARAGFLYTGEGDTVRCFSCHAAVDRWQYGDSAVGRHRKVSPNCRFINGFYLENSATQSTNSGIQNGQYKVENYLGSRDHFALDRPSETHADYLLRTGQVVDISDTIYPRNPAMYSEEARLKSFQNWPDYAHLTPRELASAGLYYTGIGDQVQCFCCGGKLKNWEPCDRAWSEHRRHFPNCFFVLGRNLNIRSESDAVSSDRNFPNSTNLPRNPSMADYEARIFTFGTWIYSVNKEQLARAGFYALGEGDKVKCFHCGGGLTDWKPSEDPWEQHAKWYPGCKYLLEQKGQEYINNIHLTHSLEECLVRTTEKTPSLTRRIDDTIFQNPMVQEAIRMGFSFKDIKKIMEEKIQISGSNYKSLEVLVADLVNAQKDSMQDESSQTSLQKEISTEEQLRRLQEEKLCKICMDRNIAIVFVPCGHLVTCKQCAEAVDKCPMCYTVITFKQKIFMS

SMILES | IC50 [1] [µM] | Stability [2]
C[C@@H]1O[C@@H](Oc2c(-c3ccc(O)cc3)oc3cc(O)cc(O)c3c2=O)[C@H](OC(=O)/C=C/c2ccc(O)cc2)[C@H](O)[C@H]1OC(=O)/C=C/c1ccc(O)cc1 | > 10.4 | Stable
O=c1c(O)c(-c2ccc(O)cc2)oc2cc(O)cc(O)c12 [KAEMPFEROL] | > 100 | –
